Tests used:
Assay in all cases: DSF 100 kinase selectivity screen;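 further: compound tested at 20 µM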
Type in all cases: binding
[1] = biological target: T1, ~100 representative kinases (Homo sapiens, UniProt Q96PY6); settings: protein NEK1; average of three replicates
T1 construct: Recombinant protein kinase domains with a concentration of 2 μM
T1 sequence (Q96PY6 1-1258): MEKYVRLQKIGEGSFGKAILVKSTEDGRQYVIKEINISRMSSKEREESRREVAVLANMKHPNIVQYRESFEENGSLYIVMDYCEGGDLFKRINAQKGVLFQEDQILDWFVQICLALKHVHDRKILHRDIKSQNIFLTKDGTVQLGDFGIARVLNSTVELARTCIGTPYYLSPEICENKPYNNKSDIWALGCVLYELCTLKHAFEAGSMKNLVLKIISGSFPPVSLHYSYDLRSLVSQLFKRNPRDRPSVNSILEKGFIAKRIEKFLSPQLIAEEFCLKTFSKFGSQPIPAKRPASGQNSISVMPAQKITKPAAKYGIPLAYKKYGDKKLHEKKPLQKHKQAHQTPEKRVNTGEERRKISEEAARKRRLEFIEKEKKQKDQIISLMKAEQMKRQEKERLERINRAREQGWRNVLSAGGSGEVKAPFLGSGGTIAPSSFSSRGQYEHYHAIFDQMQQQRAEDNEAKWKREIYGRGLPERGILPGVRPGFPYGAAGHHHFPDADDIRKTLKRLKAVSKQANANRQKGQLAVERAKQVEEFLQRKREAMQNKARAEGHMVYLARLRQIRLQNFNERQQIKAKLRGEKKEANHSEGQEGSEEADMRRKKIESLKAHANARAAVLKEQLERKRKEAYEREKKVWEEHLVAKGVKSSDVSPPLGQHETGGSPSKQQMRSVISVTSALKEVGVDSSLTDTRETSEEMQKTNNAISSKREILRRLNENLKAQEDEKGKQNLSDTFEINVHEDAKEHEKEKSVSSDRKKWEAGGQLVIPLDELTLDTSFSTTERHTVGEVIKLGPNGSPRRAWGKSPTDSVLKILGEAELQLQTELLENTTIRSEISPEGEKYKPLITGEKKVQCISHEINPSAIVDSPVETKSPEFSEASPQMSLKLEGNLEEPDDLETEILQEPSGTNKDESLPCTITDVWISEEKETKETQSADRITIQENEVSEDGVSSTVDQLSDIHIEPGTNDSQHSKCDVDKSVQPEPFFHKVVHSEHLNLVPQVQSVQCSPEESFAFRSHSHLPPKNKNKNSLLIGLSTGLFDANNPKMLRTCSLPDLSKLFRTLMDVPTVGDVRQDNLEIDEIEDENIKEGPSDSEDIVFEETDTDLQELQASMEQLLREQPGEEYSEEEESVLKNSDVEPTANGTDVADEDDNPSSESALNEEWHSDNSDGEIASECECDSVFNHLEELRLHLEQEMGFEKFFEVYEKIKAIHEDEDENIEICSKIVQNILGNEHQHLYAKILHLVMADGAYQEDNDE
Procedure, shortened: (§1)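 Each kinase domain, at 2 μM, is mixed with 20 μM test compound and SYPRO Orange in Hepes (20 mM, pH 7.5) with 500 mM NaCl. Temperature is then raised at 3°C/min and fluorescence-monitored unfolding yields the melting temperature change, ΔTm in degrees Celsius.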

[2] = biological target: T2, ~100 representative kinases (Homo sapiens, UniProt P68400); settings: Protein CK2A1; average of three replicates
T2 construct: Recombinant protein kinase domains with a concentration of 2 μM
Procedure, shortened: as §1

[3] = biological target: T3, ~100 representative kinases (Homo sapiens, UniProt Q92630); settings: Protein DYRK2; average of three replicates
T3 construct: Recombinant protein kinase domains with a concentration of 2 μM
T3 sequence (Q92630 1-601): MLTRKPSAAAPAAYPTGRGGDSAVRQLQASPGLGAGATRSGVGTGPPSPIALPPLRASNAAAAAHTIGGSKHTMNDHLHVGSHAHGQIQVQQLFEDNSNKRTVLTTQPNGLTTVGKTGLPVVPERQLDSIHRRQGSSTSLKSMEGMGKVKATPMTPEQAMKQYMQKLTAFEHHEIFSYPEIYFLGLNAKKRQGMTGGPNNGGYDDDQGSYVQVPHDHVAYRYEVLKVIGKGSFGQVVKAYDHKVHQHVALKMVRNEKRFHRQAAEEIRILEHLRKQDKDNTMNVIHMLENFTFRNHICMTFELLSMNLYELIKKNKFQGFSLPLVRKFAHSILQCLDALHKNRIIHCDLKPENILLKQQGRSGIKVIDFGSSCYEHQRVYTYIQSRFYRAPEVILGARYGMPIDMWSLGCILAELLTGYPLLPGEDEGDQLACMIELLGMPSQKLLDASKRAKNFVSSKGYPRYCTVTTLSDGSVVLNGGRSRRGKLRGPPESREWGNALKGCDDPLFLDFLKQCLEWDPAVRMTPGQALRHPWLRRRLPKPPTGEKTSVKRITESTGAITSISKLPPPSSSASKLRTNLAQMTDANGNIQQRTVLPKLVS
Procedure, shortened: as §1

[4] = biological target: T4, ~100 representative kinases (Homo sapiens, UniProt P49841); settings: protein GSK3B; average of three replicates
T4 construct: Recombinant protein kinase domains with a concentration of 2 μM
Procedure, shortened: as §1

[5] = biological target: T5, ~100 representative kinases (Homo sapiens, UniProt O94768); settings: Protein STK17B; DSF; average of three replicates
T5 construct: Recombinant protein kinase domains with a concentration of 2 μM
T5 sequence (O94768 1-372): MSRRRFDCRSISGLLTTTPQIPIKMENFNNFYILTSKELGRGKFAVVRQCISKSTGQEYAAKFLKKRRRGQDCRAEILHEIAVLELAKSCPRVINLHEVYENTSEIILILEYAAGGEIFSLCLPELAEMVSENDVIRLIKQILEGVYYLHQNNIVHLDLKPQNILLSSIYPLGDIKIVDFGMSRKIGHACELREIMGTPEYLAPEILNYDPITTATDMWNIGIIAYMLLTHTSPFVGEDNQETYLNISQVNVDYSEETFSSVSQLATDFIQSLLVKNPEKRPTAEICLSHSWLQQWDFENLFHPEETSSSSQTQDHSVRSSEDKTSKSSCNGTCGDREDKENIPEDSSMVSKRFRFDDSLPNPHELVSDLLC
Procedure, shortened: as §1

T2 sequence (P68400 whole entry, the tested form may be a part): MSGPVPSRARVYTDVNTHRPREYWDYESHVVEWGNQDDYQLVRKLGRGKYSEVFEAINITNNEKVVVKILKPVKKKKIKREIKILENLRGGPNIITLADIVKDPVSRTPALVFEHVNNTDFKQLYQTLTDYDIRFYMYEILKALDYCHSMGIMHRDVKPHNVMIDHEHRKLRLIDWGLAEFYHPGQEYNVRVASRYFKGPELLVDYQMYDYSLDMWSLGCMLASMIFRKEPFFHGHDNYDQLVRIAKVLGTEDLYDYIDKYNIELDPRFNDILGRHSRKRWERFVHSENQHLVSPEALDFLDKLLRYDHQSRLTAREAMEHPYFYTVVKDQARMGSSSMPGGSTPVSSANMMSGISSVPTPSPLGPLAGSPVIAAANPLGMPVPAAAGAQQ
T4 sequence (P49841 whole entry, the tested form may be a part): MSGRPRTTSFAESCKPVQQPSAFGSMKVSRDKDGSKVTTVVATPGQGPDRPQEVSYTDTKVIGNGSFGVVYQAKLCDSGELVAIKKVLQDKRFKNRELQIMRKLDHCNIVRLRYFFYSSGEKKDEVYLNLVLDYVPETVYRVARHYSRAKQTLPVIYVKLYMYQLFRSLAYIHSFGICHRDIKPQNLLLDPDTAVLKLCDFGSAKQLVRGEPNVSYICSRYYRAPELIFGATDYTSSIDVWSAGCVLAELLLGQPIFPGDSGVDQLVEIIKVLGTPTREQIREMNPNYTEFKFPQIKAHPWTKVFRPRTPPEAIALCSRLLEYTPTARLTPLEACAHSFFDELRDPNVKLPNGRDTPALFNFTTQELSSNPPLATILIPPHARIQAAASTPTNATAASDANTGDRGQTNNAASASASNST

Row | Structure (SMILES) | dTm [1] [K] | dTm [2] [K] | dTm [3] [K] | dTm [4] [K] | dTm [5] [K]
1 | C[C@@H]1CN(c2cc(-c3n[nH]c4ccc(OC5(C)CC5)cc34)ncn2)C[C@H](C)O1 [MLi2] | 0.27 | 0.17 | 1.21 | 0.56 | 0.38
2 | O=C(Nc1cccc(-c2c[nH]c3ncnc(N4CCOCC4)c23)c1)C1(C(=O)Nc2cccc3c2CCC3)CC1 [Compound 11] | -2.39 | -1.70 | 4.30 | 8.12 | 0.00
3 | O=C(Nc1ccccc1)C1(C(=O)Nc2cccc(-c3c[nH]c4ncnc(N5CCOCC5)c34)c2)CC1 [Compound 12] | 0.33 | 0.00 | 6.15 | 5.87 | 7.92
4 | Cn1cc(-c2c[nH]c3ncnc(N4CCOCC4)c23)cc1C#N [PFE-360] | 0.39 | 0.25 | 1.08 | 5.50 | -2.21
5 | Cc1ccc(C(=O)Nc2ccc(CN3CCN(C)CC3)c(C(F)(F)F)c2)cc1C#Cc1c[nH]c2ncnc(N3CCOCC3)c12 [Compound 1] | -0.11 | 2.53 | 3.91 | 1.72 | 0.19
6 | O=C(Nc1cccc(-c2c[nH]c3ncnc(N4CCOCC4)c23)c1)C1(C(=O)Nc2ccc(F)c(F)c2)CC1 [Compound 17] | 0.29 | -0.81 | 7.75 | 7.13 | 6.96
7 | Cc1ccc(C(=O)Nc2ccc(CN3CCN(C)CC3)c(C(F)(F)F)c2)cc1C#Cc1cnc2[nH]ncc2c1 [GZD-824, reference compound] | 1.45 | -1.14 | 4.99 | 4.71 | -1.15

Now from value to compound:

Row | dTm [1] [K] | dTm [2] [K] | dTm [3] [K] | dTm [4] [K] | dTm [5] [K] | Structure (SMILES)
8 | -0.14 | -0.33 | 3.88 | 3.90 | 3.82 | O=C(Nc1cccc(-c2c[nH]c3ncnc(N4CCOCC4)c23)c1)C1(C(=O)Nc2ccc(F)cc2F)CC1 [Compound 23]
9 | 0.13 | 0.00 | 10.25 | 13.25 | 9.72 | CC(C)(C)c1cc(NC(=O)Nc2cccc(-c3c[nH]c4ncnc(N5CCOCC5)c34)c2)n(-c2ccc3ncccc3c2)n1 [Compound 28]
10 | -0.32 | -0.75 | 9.51 | 9.62 | 9.48 | O=C(Nc1cccc(-c2c[nH]c3ncnc(N4CCOCC4)c23)c1)C1(C(=O)Nc2ccc(F)c(Cl)c2)CC1 [Compound 18]
11 | -0.89 | 0.10 | 3.42 | 0.00 | 0.00 | O=C(Nc1cccc(-c2c[nH]c3ncnc(N4CCOCC4)c23)c1)C1(C(=O)Nc2ccc(F)c(Br)c2)CC1 [Compound 19]
12 | -0.05 | -0.56 | 10.73 | 9.68 | 10.15 | Cc1cc(NC(=O)C2(C(=O)Nc3cccc(-c4c[nH]c5ncnc(N6CCOCC6)c45)c3)CC2)ccc1F [Compound 20]
